In the NIST ThermoML archive (doi:10.1021/je060107n):

Assay: mn = molality of the nth substance listed, in mol/kg
Details: 101 kPa, Liquid; for viscosity: Capillary tube (Ostwald / Ubbelohde) method; for speed of sound: Linear variable-path acoustic interferometer

O=[N+]([O-])[O-].O=[N+]([O-])[O-].[Mg+2] [magnesium nitrate] + O
Details | speed of sound, 273.15 K [m/s] | speed of sound, 278.15 K [m/s] | viscosity, 273.15 K [mPa·s] | viscosity, 278.15 K [mPa·s] | viscosity, 283.15 K [mPa·s]
m1 = 0.0145 | 1410.5 | 1434.8 | 1.852 | 1.556 | 1.339
m1 = 0.0528 | 1415.6 | 1438.7 | 1.874 | 1.58 | 1.357
m1 = 0.2491 | 1430.4 | 1451.6 | 1.958 | 1.654 | 1.429
m1 = 0.3405 | 1443 | 1456.8 | – | – | –
m1 = 0.5931 | – | – | 2.122 | 1.805 | 1.564
m1 = 0.6173 | 1469.3 | 1486.9 | – | – | –
m1 = 0.896 | 1498.6 | 1514.8 | – | – | –
m1 = 0.9898 | 1510.3 | 1524.8 | 2.391 | 2.047 | 1.775
m1 = 1.262 | 1538 | 1551.3 | 2.659 | 2.268 | 1.971
m1 = 1.525 | 1566.3 | 1577.1 | – | – | –
m1 = 1.827 | 1600.5 | 1610.1 | 3.232 | 2.765 | 2.4
m1 = 2.131 | 1632 | 1639.7 | 3.587 | 3.062 | 2.663
m1 = 2.493 | 1664.6 | 1670.1 | – | – | –
m1 = 2.584 | – | – | 4.348 | 3.696 | 3.207
m1 = 2.793 | 1693.2 | 1696.9 | – | – | –
m1 = 3.096 | – | – | 5.355 | 4.538 | 3.946
m1 = 3.118 | 1721.2 | 1723.7 | – | – | –
m1 = 3.17 | 1730.6 | 1733 | – | – | –
m1 = 3.329 | – | – | 5.964 | 5.056 | 4.336
m1 = 3.501 | 1752.4 | 1753.7 | – | – | –
m1 = 3.704 | – | – | 6.966 | 5.857 | 5.02
m1 = 3.757 | 1771.9 | 1772.4 | – | – | –
m1 = 4.039 | – | – | 8.21 | 6.897 | 5.864
m1 = 4.051 | 1791.3 | 1791.4 | – | – | –
m1 = 4.285 | 1808.5 | 1807.3 | – | – | –
m1 = 4.403 | 1820.2 | 1815.4 | – | – | –
m1 = 4.728 | – | – | 11.85 | 9.74 | 8.233
